Reference: patent US20120053165A1, “Novel Phenyl Imidazoles and Phenyl Triazoles As Gamma-Secretase Modulators” (Pfizer Inc., priority 2009, published 2012)

Each molecule was assayed on production of amyloid beta protein Aβ(1-42) in human WT-APP overexpressing CHO cells. Conditions: Homo sapiens, CHO, read-out: Aβ 42 IC50.
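Also: Aβ(1-42) released into conditioned medium captured by ELISA after roughly 24 h compound exposure, vehicle and inhibitor controls defining maximal and minimal inhibition.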

COc1cc(C(=O)NCCc2ccccc2Cl)ccc1-n1cnc(C)c1 [Example 79, N-[2-(2-chlorophenyl)ethyl]-3-methoxy-4-(4-methyl-1H-imidazol-1-yl)benzamide] and CCOc1ccccc1CCNC(=O)c1ccc(-n2cnc(C)c2)c(OC)c1 [Example 104, N-[2-(2-ethoxyphenyl)ethyl]-3-methoxy-4-(4-methyl-1H-imidazol-1-yl)benzamide] are within 1.5-fold of each other in IC50: 495 nM for the first, 698 nM for the second.

COc1cc(C(=O)NCCc2ccc(Cl)cc2)ccc1-n1cnc(C)c1 [Example 103, N-[2-(4-chlorophenyl)ethyl]-3-methoxy-4-(4-methyl-1H-imidazol-1-yl)benzamide] and CCOc1cccc(CCNC(=O)c2ccc(-n3cnc(C)c3)c(OC)c2)c1 [Example 112, N-[2-(3-ethoxyphenyl)ethyl]-3-methoxy-4-(4-methyl-1H-imidazol-1-yl)benzamide] are within 1.5-fold of each other in IC50: 698 nM for the first, 765 nM for the second.

Same assay, conditions: Homo sapiens, CHO, read-out: Aβ 42 IC50, Geometric mean of 2-8 determinations; human WT-APP overexpressing CHO cells

COc1cc(C(=O)NCc2ccc(F)cc2Cl)ccc1-n1cnc(C)c1 [Example 76, N-(2-chloro-4-fluorobenzyl)-3-methoxy-4-(4-methyl-1H-imidazol-1-yl)benzamide] and COc1cc(C(=O)NCc2cc3cc(F)ccc3[nH]2)ccc1-n1cnc(C)c1 [Example 89, N-[(5-fluoro-1H-indol-2-yl)methyl]-3-methoxy-4-(4-methyl-1H-imidazol-1-yl)benzamide] are within 1.5-fold of each other in IC50: 476 nM for the first, 570 nM for the second.

COc1cc(C(=O)NCCCc2ccc(F)cc2)ccc1-n1cnc(C)c1 [Example 81, N-[3-(4-fluorophenyl)propyl]-3-methoxy-4-(4-methyl-1H-imidazol-1-yl)benzamide] and COc1cc(C(=O)NCC2(c3ccccc3)CC2)ccc1-n1cnc(C)c1 [Example 101, 3-methoxy-4-(4-methyl-1H-imidazol-1-yl)-N-[(1-phenylcyclopropyl)methyl]benzamide] are within 1.5-fold of each other in IC50: 504 nM for the first, 686 nM for the second.

COc1cc(C(=O)N2CCCC(Oc3ccccc3C(C)C)C2)ccc1-n1cnc(C)c1 (stereo not drawn) [Example 85, 3-(2-isopropylphenoxy)-1-[3-methoxy-4-(4-methyl-1H-imidazol-1-yl)benzoyl]piperidine] and COc1cc(C(=O)N2CCC(Oc3ccccc3C(F)(F)F)CC2)ccc1-n1cnc(C)c1 [Example 91, 1-[3-methoxy-4-(4-methyl-1H-imidazol-1-yl)benzoyl]-4-[2-(trifluoromethyl)phenoxy]piperidine] are within 1.5-fold of each other in IC50: 533 nM for the first, 588 nM for the second.

COc1cc(C(=O)NCc2nc3cc(Cl)c(C)cc3o2)ccc1-n1cnc(C)c1 [Example 86, N-[(5-chloro-6-methyl-1,3-benzoxazol-2-yl)methyl]-3-methoxy-4-(4-methyl-1H-imidazol-1-yl)benzamide] and COc1cc(C(=O)NC(c2ccc(F)cc2)c2nc3ccccc3n2C)ccc1-n1cnc(C)c1 (stereo not drawn) [Example 107, N-[(4-fluorophenyl)(1-methyl-1H-benzimidazol-2-yl)methyl]-3-methoxy-4-(4-methyl-1H-imidazol-1-yl)benzamide] are within 1.5-fold of each other in IC50: 544 nM for the first, 735 nM for the second.

COc1cc(C(=O)N2CCC(Oc3ccccc3OC(F)(F)F)CC2)ccc1-n1cnc(C)c1 [Example 93, 1-[3-methoxy-4-(4-methyl-1H-imidazol-1-yl)benzoyl]-4-[2-(trifluoromethoxy)phenoxy]piperidine] and COc1cc(C(=O)N2CCC(c3cccc(Cl)c3)C2)ccc1-n1cnc(C)c1 (stereo not drawn) [Example 98, 1-(4-{[3-(3-chlorophenyl)pyrrolidin-1-yl]carbonyl}-2-methoxyphenyl)-4-methyl-1H-imidazole] are within 1.5-fold of each other in IC50: 602 nM for the first, 642 nM for the second.

COc1cc(C(=O)NC2CCCc3c(O)cccc32)ccc1-n1cnc(C)c1 (stereo not drawn) [Example 106, N-(5-hydroxy-1,2,3,4-tetrahydronaphthalen-1-yl)-3-methoxy-4-(4-methyl-1H-imidazol-1-yl)benzamide] and COc1ccc(OC)c(C2CCN(C(=O)c3ccc(-n4cnc(C)c4)c(OC)c3)C2)c1 (stereo not drawn) [Example 109, 1-(4-{[3-(2,5-dimethoxyphenyl)pyrrolidin-1-yl]carbonyl}-2-methoxyphenyl)-4-methyl-1H-imidazole] are within 1.5-fold of each other in IC50: 731 nM for the first, 739 nM for the second.

Molecule COc1cc(C(=O)NCC(c2ccc(C(F)(F)F)cc2)N2CCOCC2)ccc1-n1cnc(C)c1 (stereo not drawn) [Example 111, 3-methoxy-4-(4-methyl-1H-imidazol-1-yl)-N-{2-morpholin-4-yl-2-[4-(trifluoromethyl)phenyl]ethyl}benzamide] has an IC50 of 756 nM.

Same assay, conditions: Homo sapiens, CHO, read-out: Aβ 42 IC50, Single IC50 determination; human WT-APP overexpressing CHO cells

Molecule COc1cc(C(=O)N2CC(Oc3cc(Cl)ccc3Cl)C2)ccc1-n1cnc(C)c1 [Example 108, 1-(4-{[3-(2,5-dichlorophenoxy)azetidin-1-yl]carbonyl}-2-methoxyphenyl)-4-methyl-1H-imidazole] has an IC50 of 738 nM.

Same assay, conditions: read-out: Aβ 42 IC50

With COc1cc(C(=O)N[C@@H](C)c2ccc(C)cc2)ccc1-n1cnc(C)c1 [Example 110, 3-methoxy-4-(4-methyl-1H-imidazol-1-yl)-N-[(1S)-1-(4-methylphenyl)ethyl) benzamide] the IC50 was 747 nM.

Same assay, conditions: read-out: Aβ 42 IC50; Geometric mean of 2-8 determinations; human WT-APP overexpressing CHO cells

COc1cc(C(=O)NCc2cccc(C(F)(F)F)c2F)ccc1-n1cnc(C)c1 [Example 77, N-[2-fluoro-3-(trifluoromethyl)benzyl]-3-methoxy-4-(4-methyl-1H-imidazol-1-yl) benzamide] and COc1cc(C(=O)NCc2ccc(C(F)(F)F)c(F)c2)ccc1-n1cnc(C)c1 [Example 83, N-[3-fluoro-4-(trifluoromethyl)benzyl]-3-methoxy-4-(4-methyl-1H-imidazol-1-yl) benzamide] are within 1.5-fold of each other in IC50: 481 nM for the first, 514 nM for the second.

COc1cc(C(=O)NC2(c3ccc(Cl)cc3)CC2)ccc1-n1cnc(C)c1 [Example 78, N-[1-(4-chlorophenyl)cyclopropyl]-3-methoxy-4-(4-methyl-1H-imidazol-1-yl) benzamide] and COc1cc(C(=O)NC2(Cc3cccc(Cl)c3)CC2)ccc1-n1cnc(C)c1 [Example 92, N-[1-(3-chlorobenzyl)cyclopropyl]-3-methoxy-4-(4-methyl-1H-imidazol-1-yl) benzamide] are within 1.5-fold of each other in IC50: 488 nM for the first, 595 nM for the second.

COc1cc(C(=O)N[C@H](c2ccccc2)[C@@H](O)c2ccccc2)ccc1-n1cnc(C)c1 [Example 80, N-[(1R,2S)-2-hydroxy-1,2-diphenylethyl]-3-methoxy-4-(4-methyl-1H-imidazol-1-yl) benzamide] and COc1cc(C(=O)NC(C)CCc2ccccc2)ccc1-n1cnc(C)c1 (stereo not drawn) [Example 100, 3-methoxy-4-(4-methyl-1H-imidazol-1-yl)-N-(1-methyl-3-phenylpropyl) benzamide] are within 1.5-fold of each other in IC50: 501 nM for the first, 667 nM for the second.

COc1cc(C(=O)NCc2cc(C)ccc2C)ccc1-n1cnc(C)c1 [Example 82, N-(2,5-dimethylbenzyl)-3-methoxy-4-(4-methyl-1H-imidazol-1-yl) benzamide] and COc1cc(C(=O)NCCc2c[nH]c3ccc(C)cc23)ccc1-n1cnc(C)c1 [Example 97, 3-methoxy-4-(4-methyl-1H-imidazol-1-yl)-N-[2-(5-methyl-1H-indol-3-yl)ethyl] benzamide] are within 1.5-fold of each other in IC50: 513 nM for the first, 634 nM for the second.

COc1cc(C(=O)NCc2cccc(Cl)c2)ccc1-n1cnc(C)c1 [Example 84, N-(3-chlorobenzyl)-3-methoxy-4-(4-methyl-1H-imidazol-1-yl) benzamide] and COc1cc(C(=O)NCc2cc3ccccc3s2)ccc1-n1cnc(C)c1 [Example 87, N-(1-benzothien-2-ylmethyl)-3-methoxy-4-(4-methyl-1H-imidazol-1-yl) benzamide] are within 1.5-fold of each other in IC50: 520 nM for the first, 560 nM for the second.

COc1cc(C(=O)NC(C)Cc2ccc(C(F)(F)F)cc2)ccc1-n1cnc(C)c1 (stereo not drawn) [Example 88, 3-methoxy-4-(4-methyl-1H-imidazol-1-yl)-N-{1-methyl-2-[4-(trifluoromethyl)phenyl]ethyl} benzamide] and COc1cc(C(=O)NC(C)c2ccc3[nH]ccc3c2)ccc1-n1cnc(C)c1 (stereo not drawn) [Example 99, N-[1-(1H-indol-5-yl)ethyl]-3-methoxy-4-(4-methyl-1H-imidazol-1-yl) benzamide] are within 1.5-fold of each other in IC50: 561 nM for the first, 665 nM for the second.

COc1cc(C(=O)NCCOc2ccccc2Cl)ccc1-n1cnc(C)c1 [Example 90, N-[2-(2-chlorophenoxy)ethyl]-3-methoxy-4-(4-methyl-1H-imidazol-1-yl) benzamide] and COc1cc(C(=O)NCC2CCc3ccccc3C2)ccc1-n1cnc(C)c1 (stereo not drawn) [Example 113, 3-methoxy-4-(4-methyl-1H-imidazol-1-yl)-N-(1,2,3,4-tetrahydro-naphthalen-2-ylmethyl) benzamide] are within 1.5-fold of each other in IC50: 573 nM for the first, 784 nM for the second.

COc1cc(C(=O)NCc2nc(-c3ccc(C(F)(F)F)c(F)c3)no2)ccc1-n1cnc(C)c1 [Example 94, N-({3-[3-fluoro-4-(trifluoromethyl)phenyl]-1,2,4-oxadiazol-5-yl}methyl)-3-methoxy-4-(4-methyl-1H-imidazol-1-yl) benzamide] and COc1cc(C(=O)NCc2c(C)cccc2NS(C)(=O)=O)ccc1-n1cnc(C)c1 [Example 102, 3-methoxy-4-(4-methyl-1H-imidazol-1-yl)-N-{2-methyl-6-[(methyl-sulfonyl)amino]benzyl} benzamide] are within 1.5-fold of each other in IC50: 610 nM for the first, 689 nM for the second.

COc1cc(C(=O)N[C@@H]2CCC[C@@H]2Cc2cccc(F)c2)ccc1-n1cnc(C)c1 [Example 95, N-[(1R,2R)-2-(3-fluorobenzyl)cyclopentyl]-3-methoxy-4-(4-methyl-1H-imidazol-1-yl) benzamide] and COc1cc(C(=O)NC2CCc3ccccc3C2)ccc1-n1cnc(C)c1 (stereo not drawn) [Example 114, 3-methoxy-4-(4-methyl-1H-imidazol-1-yl)-N-(1,2,3,4-tetrahydro-naphthalen-2-yl) benzamide] are within 1.5-fold of each other in IC50: 627 nM for the first, 793 nM for the second.

COc1cc(C(=O)NC(c2ccccc2Cl)c2nc3ccccc3n2C)ccc1-n1cnc(C)c1 (stereo not drawn) [Example 96, N-[(2-chlorophenyl)(1-methyl-1H-benzimidazol-2-yl)methyl]-3-methoxy-4-(4-methyl-1H-imidazol-1-yl) benzamide] and COc1ccc(C2(CNC(=O)c3ccc(-n4cnc(C)c4)c(OC)c3)CCCC2)cc1 [Example 105, 3-methoxy-N-{[1-(4-methoxyphenyl)cyclopentyl]methyl}-4-(4-methyl-1H-imidazol-1-yl) benzamide] are within 1.5-fold of each other in IC50: 630 nM for the first, 708 nM for the second.
